Experimental data as given in publication PMC4147338, “Host defense peptides for treatment of colorectal carcinoma – a comparative in vitro and in vivo analysis” (Oncotarget, 2014).

How the values were obtained:
HROC18 cells = experiment: Apoptosis/necrosis assay, YO-PRO-1/PI flow cytometry; assay type: cell-based, human; details: HROC18, 24h, background cell death subtracted
Method: (§1) Figure 5 Apoptosis/necrosis assay and Western blot analysis (A, B) HROC18 and HROC24 cells were exposed to increasing HDP concentrations for a period of 24 hours. Tumor cells were stained with YO-PRO-1 for detecting early and late apoptotic tumor cells. Prior to flow cytometric analysis, PI was added to detect necrotic cells, as well. (A) Representative dot plots showing HDP-treated HROC24 cells at a concentration of 5 μM. Lower right quadrant: early apoptotic cells; upper right quadrant: late apoptotic cells; upper left quadrant: necrotic cells. (B) For cell death quantification, values of background cell death (=untreated controls) were subtracted from values of HDP-treated cells. Left panel: HROC24 cell; right panel: HROC18 cells. (C, E) Representative western blot results showing HDP-treated HROC24 cells (20 μg of total protein per lane). (D, F) Quantitative analysis of BAX and HSP90 expression in HDP-treated cells was done as described in material & methods. Expression levels of untreated cells were set to be =1 and x-fold increases of HDP-exposed cells were calculated. […] Values are given as mean ± SD.
(§2) Cell death was quantified by YO-PRO-1 (Invitrogen) and PI double staining. Selected tumor cells (HROC24 and HROC18, 1 × 10^4 cells/well) were seeded in 24-well plates and incubated overnight. Thereafter, peptides were added in increasing concentrations (ranging from 0.25 μM – 12.5 μM). Untreated cells served as living control. Following a 24-hour incubation period, supernatants were collected; cells were trypsinized and washed in PBS. Cells were stained with YO-PRO-1 (final concentration: 0.2 μM) for 20 min at room temperature. Prior to flow cytometric analysis, PI was added at a final concentration of 100 μg/ml. For cell death quantification, values of background cell death (=untreated controls) were subtracted from values of HDP-treated cells.

[1] = system: HDP-responsive cell lines (e.g. HROC24); experiment: Western blot analysis of Bax and HSP90 expression; assay type: cell-based, human; details: normalized to β-actin, untreated =1
Method: Figure 5 Apoptosis/necrosis assay and Western blot analysis (A, B) HROC18 and HROC24 cells were exposed to increasing HDP concentrations for a period of 24 hours. Tumor cells were stained with YO-PRO-1 for detecting early and late apoptotic tumor cells. Prior to flow cytometric analysis, PI was added to detect necrotic cells, as well. (A) Representative dot plots showing HDP-treated HROC24 cells at a concentration of 5 μM. Lower right quadrant: early apoptotic cells; upper right quadrant: late apoptotic cells; upper left quadrant: necrotic cells. (B) For cell death quantification, values of background cell death (=untreated controls) were subtracted from values of HDP-treated cells. […] (D, F) Quantitative analysis of BAX and HSP90 expression in HDP-treated cells was done as described in material & methods. Expression levels of untreated cells were set to be =1 and x-fold increases of HDP-exposed cells were calculated. […]
Cellular protein extracts were obtained from HDP-treated and control cells following incubation with lysis buffer (1 M Tris, pH 7.5, 5 M sodium chloride, 0.25 M ethylenediaminetetraacetic acid, 10% (v/v) triton-x 100, 4% (v:v) sodium azide, 0.1 M phenylmethane-sulfonylfluoride, protease inhibitor cocktail (Roche, Mannheim, Germany)) on ice for 30 min. […] Signal integrated intensities were quantified applying the Odyssey® software version 3.16. […]

[2] = system: whole blood cells of healthy donors; experiment: Hemolysis assay, hemoglobin release; assay type: cell-based, human; details: whole blood of healthy donors (n=6), 0.25-12.5 μM, 120 min incubation (text: 24h), absorption 540 nm, 1% SDS = maximum lysis
Method: Figure 6 Hemolysis and lymphotoxicity assays (A) Hemolytic activity of HDPs was determined by hemoglobin release from whole blood cells after 120 min incubation. Negative controls were left untreated whereas positive controls (=maximum lysis) were treated with 1% SDS. Hemolytic activity was quantified as described in the material and methods section. (B) PBLs were incubated in the presence of increasing HDP concentrations for a period of 24 hours. Viability was analyzed using Calcein-AM and quantified in comparison to untreated controls, which were set to be =1. […] Experiments were performed in triplicates. Values are given as the mean x-fold increase ± SD.
Hemolytic activity of HDPs was determined by hemoglobin release from whole blood cells after 120 min incubation. Briefly, whole blood of healthy donors (n=6) was seeded in 96-well plates and supplemented with HDPs at given concentrations (ranging from: 0.25 μM – 12.5 μM). Negative controls were left untreated and positive controls (=maximum lysis) were treated with 1% SDS. Following the incubation period, cell-free supernatants were transferred into a new 96-well plate and absorption was measured on a plate reader at 540 nm (reference wave length: 690 nm). Hemolytic activity was quantified according to the following formula: % hemolysis=((OD540nm sample−OD540nm buffer)/OD540nm max−OD540nm buffer)*100

HROC24 cells [3] = experiment: Apoptosis/necrosis assay, YO-PRO-1/PI flow cytometry; assay type: cell-based, human
Method: as §1, §2

HCT116 cells = experiment: Calcein-AM cell viability staining, 24h; assay type: cell-based, human; details: HCT116, 24h, 0.25-12.5 μM
Method: (§3) Figure 4 HDP-mediated cytotoxicity towards tumor cells Quantitative analysis of direct cytotoxicity towards tumor cells following a 24h incubation period with increasing HDP concentrations. Viability was assessed using Calcein-AM staining. Remaining viable tumor cells were quantified in comparison to untreated controls, which were set to be =1. […] Values are given as the mean x-fold increase ± SD. *p<0.05 vs. NK11; **p<0.01 vs. NK11.
(§4) This assay is based on Calcein-acetoxymethylester (Calcein-AM; Invitrogen, Darmstadt, Germany) staining to detect viable cells within a culture. Tumor and normal (PBL) cells (1-2 × 10^4 cells/well in triplicates) were seeded in 96-well plates and incubated overnight. Thereafter, peptides were added in increasing concentrations (ranging from 0.25 μM – 12.5 μM). Untreated cells served as living cell control. Medium was removed after 1h or 24h, respectively. Calcein-AM ([…]) was added and incubated for 30 min (37°C, 5% CO2). Analysis was performed on a fluorescence multi-well plate reader (Tecan Infinite® M200, Crailsheim, Germany) at an excitation wavelength of 485 nm (emission 535 nm). For estimation of cell viability, the relative fluorescence intensities of Calcein-AM-stained non-treated cells (=live control) were set to be 1, and fluorescence intensities of samples were calculated. Data of at least three independent experiments each performed in […] are given.

HROC24 cells [4] = experiment: Calcein-AM cell viability staining, 24h; assay type: cell-based, human; details: HROC24, 24h, 0.25-12.5 μM
Method: as §3, §4

[5] = FRET spectroscopy probe dilution assay, membrane intercalation; assay type: binding; details: NBD-PE/rhodamine-PE, peptide 0.2-0.8 μM, 20 mM HEPES 150 mM NaCl pH 7.4, 37°C
Method: FRET spectroscopy served as a sensitive tool to detect lipid dependence of the membrane interaction of antimicrobial peptides. For this, all peptides were added to liposomes consisting of zwitterionic PC alone, of a mixture of PC and of negatively charged PS, as well as of pure PS (Figure 1). All lipid vesicles were doped with donor and acceptor dyes, peptides were added, and the emission intensities of both dyes were monitored over time. An increase of the fluorescence intensity of the donor (IDonor) and a simultaneous decrease of the fluorescence intensity of the acceptor dye (IAcceptor), i.e. a reduced FRET efficacy, indicated an increase in the overall mean distance between labeled phospholipids, and corresponded to an insertion of peptides into the lipid bilayer. For clarity, the IDonor/IAcceptor ratio is shown (Figure 1).
Figure 1 FRET spectroscopy. (A-C) Binding to and insertion of peptide C7A-D21K into phospholipid membranes (A) C7A-D21K was added at time point 50 s to liposomes (10 μM) consisting of pure PC, (B) a 90:10 molar mixture of PC:PS, and (C) of pure PS, each doubly doped with the fluorescently labeled FRET pair NBD-PE (donor) and rhodamine-PE (acceptor). Intercalation was monitored by measuring donor and acceptor fluorescence emission intensities. For better visualization only the quotient (IDonor/IAcceptor) is shown. Addition of the peptide solvent alone had no effect (dotted grey line). Peptide concentrations used: 0.2 μM (dotted black line, only in C), 0.4 μM (solid grey line, only in C), and 0.8 μM (solid black line). (D-F) Binding to and insertion of peptides at different concentrations into phospholipid membranes. (A) Peptides were added to liposomes consisting of pure PC, (B) a 90:10 molar mixture of PC:PS, and (C) of pure PS, each doubly doped with the fluorescently labeled phospholipid FRET pair NBD-PE (donor) and rhodamine-PE (acceptor). Intercalation was monitored by measuring donor and acceptor fluorescence intensities. The relative increase of the IDonor/IAcceptor ratio 250 s after peptide addition is shown (Increase of IDonor/IAcceptor (%) = (IDonor/IAcceptor (peptide) - IDonor/IAcceptor (control))*100). Peptide concentrations used: 0.2 μM (open bars), 0.4 μM (grey bars), and 0.8 μM (black bars).
Intercalation of peptides into liposome membranes was determined by FRET spectroscopy applied as a probe dilution assay. Liposomes were prepared by dissolving appropriate lipid mixtures (pure PC, a 90:10 molar mixture of PC:PS, as well as pure PS, each doped with 1% of the donor dye NBD-PE and 1% of the acceptor dye rhodamine-PE) in chloroform and drying them under a gentle stream of nitrogen. The resulting lipid film was dispersed in 20 mM HEPES, 150 mM NaCl, pH 7.4, sonicated for 30 min and subjected to 3-4 temperature cycles from 4 to 60°C with an incubation period of 30 min at each step. Lipid dispersions were stored at 4°C overnight before use. For the assay, donor fluorescence (NBD) was excited at 470 nm, and donor (NBD, ID at 531 nm) as well as acceptor (rhodamine, IA at 593 nm) emission intensities were monitored over time. An increase of the ratio of the donor fluorescence intensity to that of the acceptor fluorescence intensity (IDonor/I^Acceptor) was interpreted as a membrane intercalation event. This ratio depends on the Förster efficiency, therefore a rising value means that the mean distance separation of donor and acceptor dyes is raising. The assay was performed at 37°C.

CC[C@H](C)[C@H](NC(=O)CN)C(=O)NCC(=O)N[C@@H](C)C(=O)N[C@H](C(=O)N[C@@H](CC(C)C)C(=O)N[C@@H](CCCCN)C(=O)N[C@H](C(=O)N[C@@H](CC(C)C)C(=O)N[C@H](C(=O)N[C@H](C(=O)NCC(=O)N[C@@H](CC(C)C)C(=O)N1CCC[C@H]1C(=O)N[C@@H](C)C(=O)N[C@@H](CC(C)C)C(=O)N[C@H](C(=O)N[C@@H](CO)C(=O)N[C@@H](Cc1c[nH]c2ccccc12)C(=O)N[C@H](C(=O)N[C@@H](CCCCN)C(=O)N[C@@H](CCCNC(=N)N)C(=O)N[C@@H](CCCCN)C(=O)N[C@@H](CCCNC(=N)N)C(=O)N[C@@H](CCC(N)=O)C(=O)N[C@@H](CCC(N)=O)C(N)=O)[C@@H](C)CC)[C@@H](C)CC)[C@@H](C)O)[C@@H](C)O)C(C)C)C(C)C [Melittin]
total killing (HROC18 cells): 71%
HSP90 protein expression [1]: dose-dependently induced
hemolysis [2]: below 20%

KILRGVAKKIMRTFLRR ILTGKK [Peptide C7A-Δ, C7A shortened by deletion of four amino acid residues]
total killing (HROC18 cells): up to 60%
Levels of viable HROC24 cells (HROC24 cells [3]; 24h, higher concentrations): 17%
Tumor killing compared with Melittin (HROC24 cells [3]; HROC24, 24h): as effective in tumor killing as Melittin
Lytic activity towards tumor cells (HCT116 cells): as effective as the reference compound Mellitin
Lytic activity towards tumor cells (HROC24 cells [4]): as effective as the reference compound Mellitin
Membrane intercalation (increase of IDonor/IAcceptor) ([5]; PC:PS 90:10 liposomes 10 μM): slightly impaired
Membrane intercalation (increase of IDonor/IAcceptor) ([5]; pure PS liposomes 10 μM): pronounced
